Measurements: patent publication US4577020A, “Aminoalkyl and aminoalkenyl triazoles as anti-psychotic agents” (The Upjohn Company, priority 1983, dated 1986)

What was measured:
[1] = standard laboratory test which indicates analgesic activity
From the text: However, the preferred use of the compounds of this invention is as anti-psychotic agents.

[2] = target: T1, ^3 H-spiroperidol binding (Mus musculus, UniProt P61168); experiment: In vivo spiroperidol binding assay
T1 construct: from tissue; host or cells: brain of ICR mice: striata, septum, most of the olfactory tubercles, small part of ventral cortex (in vivo labelling)
Description: D. In vivo spiroperidol Binding Assay
ICR strain mice, weighing about 20 gm, are given the test drugs or vehicle, i.p. or s.c., in 0.10 ml. Drug solutions are in saline, 0.1M citric acid, or 33% propylene glycol. After 1 hour, mice are given 66 micro-Curies (μCi)/kg of ^3 H-spiroperidol (specific activity […]) i.v. in 0.10 ml of saline. Four to 6 mice are given each test drug, and 4 of those which are successfully i.v. injected with the label are used for the rest of the experiment. At 3 hours (2 hours after the ^3 H-spiroperidol injection), the mice are sacrificed and the brains rapidly dissected. A section of brain tissue including the striata, septum, most of the olfactory tuberoles, and a small associated portion of the ventral edge of the cortex, is removed to dry ice. The tissues are weighed (usually 60-70 mg) and then dissolved in 1.0 ml of Protosol (New England Nuclear) overnight at about 40° C. The solutions are then neutralized with 80 μl of 6N HCl or 200 μl of 2.4N HCl, 15 ml of ACS counting solution (Amersham) is added, and the samples are counted by liquid scintillation spectroscopy. The amount of bound ^3 H-spiroperiodol, in cpm/mg tissue, is calculated for each test group and compared to the control group using the two-tailed Student's t test.
Of these tests, the in vivo spiroperidol binding assay is the most important indicator of antipsychotic activity. […]

T1 sequence (P61168 whole entry): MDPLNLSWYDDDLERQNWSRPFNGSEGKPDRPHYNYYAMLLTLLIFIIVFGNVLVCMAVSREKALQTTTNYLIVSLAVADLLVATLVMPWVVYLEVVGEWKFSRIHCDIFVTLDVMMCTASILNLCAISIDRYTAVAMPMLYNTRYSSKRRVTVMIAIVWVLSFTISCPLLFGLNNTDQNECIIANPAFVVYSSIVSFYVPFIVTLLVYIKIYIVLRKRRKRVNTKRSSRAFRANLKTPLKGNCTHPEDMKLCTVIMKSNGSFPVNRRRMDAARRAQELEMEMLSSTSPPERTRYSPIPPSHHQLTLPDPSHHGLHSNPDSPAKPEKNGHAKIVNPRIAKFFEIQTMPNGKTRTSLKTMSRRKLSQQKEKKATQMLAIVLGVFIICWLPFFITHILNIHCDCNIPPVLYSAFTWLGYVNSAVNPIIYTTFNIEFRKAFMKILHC

Row | Compound | analgesic activity (in words) [1] | effectiveness in the in vivo spiroperidol binding assay (in words) [2]
1 | Cc1nnc(C(C)(O)CCN(C)CCc2ccccc2)n1-c1ccccc1 (stereo not drawn) [Example 2] | effective | –
2 | Cc1nnc(/C=C/CN2CCN(c3ccccc3)CC2)n1-c1ccccc1 [Example 3, (E)-1-[3-(5-methyl-4-phenyl-4H-1,2,4-triazol-3-yl)-2-propenyl]-4-phenyl-piperazine] | – | most effective
3 | CN(CCCc1nncn1-c1ccccc1)CCc1ccccc1 [N-methyl-4-phenyl-N-(2-phenylethyl)-4H-1,2,4-triazole-3-propanamine] | – | most effective
